# Laboratory results from ChEMBL document CHEMBL1201861, “Genomics of Drug Sensitity in Cancer screening data, Wellcome Trust Sanger Institute”.
# Counter-ions that a name gives are not always drawn.
# Key:
# Assay in all cases: cells
# Assay type in all cases: functional, cell-based, Homo sapiens
# MZ1-PC = conditions: Homo sapiens, MZ1-PC;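 also: cell viability assay measuring growth inhibition of human MZ1-PC cells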
# Description: SANGER: Inhibition of human MZ1-PC cell growth in a cell viability assay.
# KS-1 = conditions: Homo sapiens, KS-1;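 also: growth inhibition of KS-1 cells, read out with a cell viability assay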
# Description: SANGER: Inhibition of human KS-1 cell growth in a cell viability assay.
# ES7 = conditions: Homo sapiens, ES7;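 also: growth inhibition of cultured human ES7 cells, read out as cell viability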
# Description: SANGER: Inhibition of human ES7 cell growth in a cell viability assay.
# NCI-H1092 = conditions: Homo sapiens, NCI-H1092;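 also: cell growth inhibition measured with a cell viability assay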
# Description: SANGER: Inhibition of human NCI-H1092 cell growth in a cell viability assay.
# HL-60 = conditions: Homo sapiens, HL-60;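 also: growth inhibition of human HL-60 cells, read out with a cell viability assay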
# Description: SANGER: Inhibition of human HL-60 cell growth in a cell viability assay.
# NKM-1 = conditions: Homo sapiens, NKM-1;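 also: growth inhibition of NKM-1 cells, read out with a cell viability assay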
# Description: SANGER: Inhibition of human NKM-1 cell growth in a cell viability assay.
# K562 = conditions: Homo sapiens, K562
# Description: SANGER: Inhibition of human K-562 cell growth in a cell viability assay.
# U-266 = conditions: Homo sapiens, U-266
# Description: SANGER: Inhibition of human U-266 cell growth in a cell viability assay.
# LXF-289 cell line = conditions: Homo sapiens, LXF-289
# Description: SANGER: Inhibition of human LXF-289 cell growth in a cell viability assay.
# COLO-800 = conditions: Homo sapiens, COLO-800;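 also: growth inhibition of COLO-800 cells, read out with a cell viability assay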
# Description: SANGER: Inhibition of human COLO-800 cell growth in a cell viability assay.
# LB831-BLC = conditions: Homo sapiens, LB831-BLC;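 also: growth inhibition of LB831-BLC cells, read out with a cell viability assay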
# Description: SANGER: Inhibition of human LB831-BLC cell growth in a cell viability assay.
# TE-5 = conditions: Homo sapiens, TE-5;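 also: inhibition of cell growth, read out by a cell viability assay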
# Description: SANGER: Inhibition of human TE-5 cell growth in a cell viability assay.
# TGW = conditions: Homo sapiens, TGW;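 also: growth inhibition of human TGW cells, read out with a cell viability assay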
# Description: SANGER: Inhibition of human TGW cell growth in a cell viability assay.
# HC-1 = conditions: Homo sapiens, HC-1;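 also: growth inhibition of HC-1 cells measured by a cell viability assay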
# Description: SANGER: Inhibition of human HC-1 cell growth in a cell viability assay.
# NB13 = conditions: Homo sapiens, NB13;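 also: cell viability readout measuring growth inhibition of human NB13 cells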
# Description: SANGER: Inhibition of human NB13 cell growth in a cell viability assay.
# DOHH-2 = conditions: Homo sapiens, DOHH-2;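 also: growth inhibition of human DOHH-2 cells, read out with a cell viability assay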
# Description: SANGER: Inhibition of human DOHH-2 cell growth in a cell viability assay.
# RKO = conditions: Homo sapiens, RKO;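 also: growth inhibition of human RKO cells, read out with a cell viability assay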
# Description: SANGER: Inhibition of human RKO cell growth in a cell viability assay.
# DEL = conditions: Homo sapiens, DEL;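 also: growth inhibition of the human DEL cell line, read out with a cell viability assay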
# Description: SANGER: Inhibition of human DEL cell growth in a cell viability assay.
# ES5 = conditions: Homo sapiens, ES5;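 also: growth inhibition of human ES5 cells, read out by a cell viability assay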
# Description: SANGER: Inhibition of human ES5 cell growth in a cell viability assay.
# SK-N-DZ = conditions: Homo sapiens, SK-N-DZ;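 also: growth inhibition of the cancer cell line, read out through a viability assay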
# Description: SANGER: Inhibition of human SK-N-DZ cell growth in a cell viability assay.
# SF-126 = conditions: Homo sapiens, SF-126;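 also: growth inhibition of human SF126 cells, read out with a cell viability assay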
# Description: SANGER: Inhibition of human SF126 cell growth in a cell viability assay.
# LAMA-84 = conditions: Homo sapiens, LAMA-84;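 also: growth inhibition of LAMA-84 cells, read out with a cell viability assay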
# Description: SANGER: Inhibition of human LAMA-84 cell growth in a cell viability assay.
# TE-8 = conditions: Homo sapiens, TE-8;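 also: growth inhibition of TE-8 cells, measured with a cell viability readout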
# Description: SANGER: Inhibition of human TE-8 cell growth in a cell viability assay.
# EOL1 = conditions: Homo sapiens, EOL1;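 also: growth inhibition of EoL-1 cells, read out by a cell viability assay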
# Description: SANGER: Inhibition of human EoL-1-cell cell growth in a cell viability assay.
# SK-PN-DW = conditions: Homo sapiens, SK-PN-DW;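 also: growth inhibition measured with a viability assay on these cells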
# Description: SANGER: Inhibition of human SK-PN-DW cell growth in a cell viability assay.
# 697 = conditions: Homo sapiens
# Description: SANGER: Inhibition of human 697 cell growth in a cell viability assay.
# NCI-H1299 = conditions: Homo sapiens, NCI-H1299;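 also: growth inhibition of human NCI-H1299 cells, read out by a cell viability assay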
# Description: SANGER: Inhibition of human NCI-H1299 cell growth in a cell viability assay.
# COR-L88 = conditions: Homo sapiens, COR-L88;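 also: growth inhibition of COR-L88 cells, read out with a cell viability assay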
# Description: SANGER: Inhibition of human COR-L88 cell growth in a cell viability assay.
# ATN-1 = conditions: Homo sapiens, ATN-1;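 also: growth inhibition of human ATN-1 cells, read out with a cell viability assay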
# Description: SANGER: Inhibition of human ATN-1 cell growth in a cell viability assay.
# D-392MG = conditions: Homo sapiens, D-392MG
# SCH = conditions: Homo sapiens, SCH;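 also: growth inhibition of human SCH cells, read out in a cell viability assay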
# Description: SANGER: Inhibition of human SCH cell growth in a cell viability assay.
# A253 cell line = conditions: Homo sapiens, A253;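 also: growth inhibition of A253 cells, read out with a cell viability assay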
# Description: SANGER: Inhibition of human A253 cell growth in a cell viability assay.
# HCC2218 = conditions: Homo sapiens, HCC2218;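 also: cell viability assay read-out, with IC50 given as the concentration that inhibits growth of the cell line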
# Description: SANGER: Inhibition of human HCC2218 cell growth in a cell viability assay.
# NCI-H1395 = conditions: Homo sapiens, NCI-H1395;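 also: cell viability assay read-out quantifying reduced proliferation of human NCI-H1395 cells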
# Description: SANGER: Inhibition of human NCI-H1395 cell growth in a cell viability assay.
# MLMA = conditions: Homo sapiens, MLMA;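 also: growth inhibition of MLMA cells (human), determined through a cell viability readout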
# Description: SANGER: Inhibition of human MLMA cell growth in a cell viability assay.
# NCI-H2126 = conditions: Homo sapiens, NCI-H2126;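 also: growth inhibition of the cancer cell line, determined with a cell viability readout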
# Description: SANGER: Inhibition of human NCI-H2126 cell growth in a cell viability assay.
# MN-60 = conditions: Homo sapiens, MN-60;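 also: growth inhibition of the MN-60 cell line, determined with a cell viability assay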
# Description: SANGER: Inhibition of human MN-60 cell growth in a cell viability assay.
# HDLM-2 = conditions: Homo sapiens, HDLM-2;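 also: cell viability assay measuring suppression of HDLM-2 proliferation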
# Description: SANGER: Inhibition of human HDLM-2 cell growth in a cell viability assay.
# SBC-1 = conditions: Homo sapiens, SBC-1;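 also: cell viability assay measuring growth inhibition of the SBC-1 cell line, IC50 being the concentration that halves growth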
# Description: SANGER: Inhibition of human SBC-1 cell growth in a cell viability assay.
# SK-UT-1 = conditions: Homo sapiens, SK-UT-1;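 also: growth inhibition of SK-UT-1 cells, measured by a cell viability assay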
# Description: SANGER: Inhibition of human SK-UT-1 cell growth in a cell viability assay.
# ES6 = conditions: Homo sapiens, ES6;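 also: growth inhibition of human ES6 cells, read out with a cell viability assay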
# Description: SANGER: Inhibition of human ES6 cell growth in a cell viability assay.
# SJSA-1 = conditions: Homo sapiens, SJSA-1;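 also: growth inhibition of human SJSA-1 cells, read out through a cell viability measurement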
# Description: SANGER: Inhibition of human SJSA-1 cell growth in a cell viability assay.
# EW-13 = conditions: Homo sapiens, EW-13;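 also: growth inhibition of EW-13 cells, read out with a cell viability assay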
# Description: SANGER: Inhibition of human EW-13 cell growth in a cell viability assay.
# TE-12 = conditions: Homo sapiens, TE-12;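 also: growth inhibition of TE-12 cells, read out by a cell viability assay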
# Description: SANGER: Inhibition of human TE-12 cell growth in a cell viability assay.
# A3-KAW = conditions: Homo sapiens, A3-KAW;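 also: growth inhibition of human A3-KAW cells, read out with a cell viability assay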
# Description: SANGER: Inhibition of human A3-KAW cell growth in a cell viability assay.
# NB6 = conditions: Homo sapiens, NB6;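 also: growth inhibition of NB6 cells, read out by a cell viability assay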
# Description: SANGER: Inhibition of human NB6 cell growth in a cell viability assay.
# HCE-4 = conditions: Homo sapiens, HCE-4;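 also: cell viability assay measuring inhibition of growth in the human HCE-4 cell line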
# Description: SANGER: Inhibition of human HCE-4 cell growth in a cell viability assay.
# LB2518-MEL = conditions: Homo sapiens, LB2518-MEL;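 also: growth inhibition of human LB2518-MEL cells, measured with a cell viability assay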
# Description: SANGER: Inhibition of human LB2518-MEL cell growth in a cell viability assay.
# Lu-65 = conditions: Homo sapiens, Lu-65;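 also: growth inhibition of Lu-65 cancer cells, read out by a cell viability assay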
# Description: SANGER: Inhibition of human LU-65 cell growth in a cell viability assay.
structure (smiles),measurement,setting,value
COc1cccc2c1C(=O)c1c(O)c3c(c(O)c1C2=O)C[C@@](O)(C(=O)CO)C[C@@H]3O[C@H]1C[C@H](N)[C@H](O)[C@H](C)O1 [DOXORUBICIN],IC50,MZ1-PC,23.8 nM
same,IC50,KS-1,3.44 nM
same,IC50,ES7,51.4 nM
same,IC50,NCI-H1092,738 nM
same,IC50,HL-60,62.6 nM
same,IC50,NKM-1,29.5 nM
same,IC50,K562,386 nM
same,IC50,U-266,451 nM
same,IC50,LXF-289 cell line,109 nM
same,IC50,COLO-800,172 nM
same,IC50,LB831-BLC,206 nM
same,IC50,TE-5,37.5 nM
same,IC50,TGW,> 1020 nM
same,IC50,HC-1,37.3 nM
same,IC50,NB13,135 nM
same,IC50,DOHH-2,20 nM
same,IC50,RKO,22.3 nM
same,IC50,DEL,38.4 nM
same,IC50,ES5,39.2 nM
same,IC50,SK-N-DZ,> 1020 nM
same,IC50,SF-126,105 nM
same,IC50,LAMA-84,437 nM
same,IC50,TE-8,7.5 nM
same,IC50,EOL1,27.8 nM
same,IC50,SK-PN-DW,25.7 nM
same,IC50,697,19.1 nM
same,IC50,NCI-H1299,37.6 nM
same,IC50,COR-L88,> 1020 nM
same,IC50,ATN-1,128 nM
same,IC50,D-392MG,249 nM
same,IC50,SCH,> 1020 nM
same,IC50,A253 cell line,46.1 nM
same,IC50,HCC2218,182 nM
same,IC50,NCI-H1395,> 1020 nM
same,IC50,MLMA,122 nM
same,IC50,NCI-H2126,192 nM
same,IC50,MN-60,605 nM
same,IC50,HDLM-2,569 nM
same,IC50,SBC-1,156 nM
same,IC50,SK-UT-1,20 nM
same,IC50,ES6,137 nM
same,IC50,SJSA-1,111 nM
same,IC50,EW-13,9.63 nM
same,IC50,TE-12,81.1 nM
same,IC50,A3-KAW,40.1 nM
same,IC50,NB6,> 1020 nM
same,IC50,HCE-4,18.1 nM
same,IC50,LB2518-MEL,413 nM
same,IC50,Lu-65,346 nM
COC1=CC(c2cc3ccccc3[nH]2)=N/C1=C\c1[nH]c(C)cc1C [OBATOCLAX MESYLATE],IC50,MZ1-PC,108 nM
same,IC50,KS-1,305 nM
same,IC50,ES7,< 62.5 nM
same,IC50,NCI-H1092,3080 nM
same,IC50,HL-60,1260 nM
same,IC50,NKM-1,< 62.5 nM
same,IC50,K562,1670 nM
same,IC50,U-266,311 nM
same,IC50,LXF-289 cell line,260 nM
same,IC50,COLO-800,5190 nM
same,IC50,LB831-BLC,444 nM
same,IC50,TE-5,483 nM
same,IC50,TGW,17.4 nM
same,IC50,HC-1,1930 nM
same,IC50,NB13,64.2 nM
same,IC50,DOHH-2,< 62.5 nM
same,IC50,RKO,< 62.5 nM
same,IC50,DEL,83.5 nM
same,IC50,ES5,605 nM
same,IC50,SK-N-DZ,859 nM
same,IC50,SF-126,273 nM
same,IC50,LAMA-84,2570 nM
same,IC50,TE-8,98.9 nM
same,IC50,EOL1,115 nM
same,IC50,SK-PN-DW,57.3 nM
same,IC50,697,53.2 nM
same,IC50,NCI-H1299,61.3 nM
same,IC50,COR-L88,> 16000 nM
same,IC50,ATN-1,167 nM
same,IC50,D-392MG,1600 nM
same,IC50,SCH,> 16000 nM
same,IC50,A253 cell line,575 nM
same,IC50,HCC2218,2410 nM
same,IC50,NCI-H1395,> 16000 nM
same,IC50,MLMA,75.3 nM
same,IC50,NCI-H2126,2230 nM
same,IC50,MN-60,99 nM
same,IC50,HDLM-2,420 nM
same,IC50,SBC-1,3090 nM
same,IC50,SK-UT-1,136 nM
same,IC50,ES6,144 nM
same,IC50,SJSA-1,147 nM
same,IC50,EW-13,44.1 nM
same,IC50,TE-12,333 nM
same,IC50,A3-KAW,85.7 nM
same,IC50,NB6,4430 nM
same,IC50,HCE-4,203 nM
same,IC50,LB2518-MEL,234 nM
same,IC50,Lu-65,1090 nM
CCC/C=C/C=C/C(=O)O[C@H]1/C(=C/C(=O)OC)C[C@H]2C[C@H]([C@@H](C)O)OC(=O)C[C@H](O)C[C@@H]3C[C@H](OC(C)=O)C(C)(C)[C@](O)(C[C@@H]4C/C(=C/C(=O)OC)C[C@H](/C=C/C(C)(C)[C@]1(O)O2)O4)O3 [BRYOSTATIN 1],IC50,MZ1-PC,> 8 nM
same,IC50,KS-1,> 8 nM
same,IC50,ES7,> 8 nM
same,IC50,NCI-H1092,> 8 nM
same,IC50,HL-60,> 8 nM
same,IC50,NKM-1,> 8 nM
same,IC50,K562,> 8 nM
same,IC50,U-266,> 8 nM
same,IC50,LXF-289 cell line,> 8 nM
same,IC50,COLO-800,> 8 nM
same,IC50,LB831-BLC,> 8 nM
same,IC50,TE-5,> 8 nM
same,IC50,TGW,> 8 nM
same,IC50,HC-1,> 8 nM
same,IC50,NB13,> 8 nM
same,IC50,DOHH-2,> 8 nM
same,IC50,RKO,> 8 nM
same,IC50,DEL,> 8 nM
same,IC50,ES5,> 8 nM
same,IC50,SK-N-DZ,> 8 nM
same,IC50,SF-126,> 8 nM
same,IC50,LAMA-84,> 8 nM
same,IC50,TE-8,> 8 nM
same,IC50,EOL1,> 8 nM
same,IC50,SK-PN-DW,> 8 nM
same,IC50,697,> 8 nM
same,IC50,NCI-H1299,> 8 nM
same,IC50,COR-L88,> 8 nM
same,IC50,ATN-1,> 8 nM
same,IC50,D-392MG,> 8 nM
same,IC50,SCH,> 8 nM
same,IC50,A253 cell line,> 8 nM
same,IC50,HCC2218,> 8 nM
same,IC50,NCI-H1395,> 8 nM
same,IC50,MLMA,> 8 nM
same,IC50,NCI-H2126,> 8 nM
same,IC50,MN-60,> 8 nM
same,IC50,HDLM-2,> 8 nM
same,IC50,SBC-1,> 8 nM
same,IC50,SK-UT-1,> 8 nM
same,IC50,ES6,> 8 nM
same,IC50,SJSA-1,> 8 nM
same,IC50,EW-13,> 8 nM
same,IC50,TE-12,> 8 nM
same,IC50,A3-KAW,> 8 nM
same,IC50,NB6,> 8 nM
same,IC50,HCE-4,> 8 nM
same,IC50,LB2518-MEL,> 8 nM
same,IC50,Lu-65,> 8 nM
Cc1cc([N+](=O)[O-])ccc1NS(=O)(=O)c1cc(Cl)ccc1Cl,IC50,MZ1-PC,6310 nM
same,IC50,KS-1,12600 nM
same,IC50,ES7,11100 nM
same,IC50,NCI-H1092,> 32000 nM
same,IC50,HL-60,3790 nM
same,IC50,NKM-1,10200 nM
same,IC50,K562,26900 nM
same,IC50,U-266,22900 nM
same,IC50,LXF-289 cell line,5360 nM
same,IC50,COLO-800,8910 nM
same,IC50,LB831-BLC,2100 nM
same,IC50,TE-5,6730 nM
same,IC50,TGW,> 32000 nM
same,IC50,HC-1,12700 nM
same,IC50,NB13,7320 nM
same,IC50,DOHH-2,17200 nM
same,IC50,RKO,2210 nM
same,IC50,DEL,6680 nM
same,IC50,ES5,> 32000 nM
same,IC50,SK-N-DZ,> 32000 nM
same,IC50,SF-126,9880 nM
same,IC50,LAMA-84,6090 nM
same,IC50,TE-8,5760 nM
same,IC50,EOL1,4950 nM
same,IC50,SK-PN-DW,11600 nM
same,IC50,697,> 32000 nM
same,IC50,NCI-H1299,3190 nM
same,IC50,COR-L88,> 32000 nM
same,IC50,ATN-1,> 32000 nM
same,IC50,D-392MG,> 32000 nM
same,IC50,SCH,20500 nM
same,IC50,A253 cell line,5930 nM
same,IC50,HCC2218,3440 nM
same,IC50,NCI-H1395,> 32000 nM
same,IC50,MLMA,8960 nM
same,IC50,NCI-H2126,24800 nM
same,IC50,MN-60,27000 nM
same,IC50,HDLM-2,6710 nM
same,IC50,SBC-1,> 32000 nM
same,IC50,SK-UT-1,1960 nM
same,IC50,ES6,3030 nM
same,IC50,SJSA-1,5700 nM
same,IC50,EW-13,6040 nM
same,IC50,TE-12,2940 nM
same,IC50,A3-KAW,8780 nM
same,IC50,NB6,13500 nM
same,IC50,HCE-4,5450 nM
same,IC50,LB2518-MEL,1160 nM
same,IC50,Lu-65,31800 nM
